# Data: publication PMC11700832, “Small-molecule MMRi36 induces apoptosis in p53-mutant lymphomas by targeting MDM2/MDM4/XIAP for degradation” (Frontiers in Oncology, 2024)
# Molecular target: T1, MDM2 (MDM2-MDM4 RING domain heterodimer) (Homo sapiens, UniProt O15151+Q00987)
# T1 construct: RING domain heterodimers of MDM2-MDM4, co-expressed in E. coli; with MDM4 (RING domain)
# Experiment: microscale thermophoresis; thermofluor (Tm […] to […] °C); in vitro ubiquitination activation
# Format: binding
# T1 sequence (Q00987 428-491 limits assumed): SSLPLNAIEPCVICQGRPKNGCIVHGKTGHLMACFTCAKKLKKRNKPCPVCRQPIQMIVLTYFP
# T1 sequence (O15151 428-490 limits assumed): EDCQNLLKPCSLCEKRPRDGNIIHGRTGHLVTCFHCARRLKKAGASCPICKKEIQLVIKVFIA
compound,measurement,value
O=C1Nc2ccc(Br)cc2C12NN=C(c1ccccc1)S2 (stereo not shown) [MMRi36],Kd,~308 nM
